This passage reports TGI results from PubChem BioAssay (NCI).

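All cell lines were grown in 96-well plates and treated with compound for 48 hours. The concentration for full growth arrest is given as TGI.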 Some results are limits rather than exact numbers.

Some test systems named below: CAKI-1 renal; HOP-92 NSCLC; BT-549 breast; NCI/ADR-RES ovarian; U251 CNS; M14 melanoma; RXF 393 renal; 786-0 renal; SN12C renal; SR leukemia; NCI-H23 lung.
Common to all, as to test: inhibition of tumour cell growth, NCI panel, 48 h

In the case of `CC(=O)OCC12C(=O)C[C@@H](C)C3(CC(c4ccoc4)OC3=O)C1CCC(OC(C)=O)C21CO1` (some centres undefined), the TGI in the assay with CAKI-1 renal, with HOP-92 NSCLC, in the assay with BT-549 breast, in the assay on NCI/ADR-RES ovarian, in the assay on U251 CNS and in the assay on M14 melanoma was more than 100 µM throughout. Further, the TGI in the assay with RXF 393 renal, in the assay with 786-0 renal, in the assay with SN12C renal, in the assay with SR leukemia and with NCI-H23 lung was more than 100 µM each time.
In the case of `CCOCc1nc2c(OC)cc(-c3nc4ccc(N5CCN(C)CC5)cc4[nH]3)c(OC)c2[nH]1`, the TGI was 81.9 µM in the assay on CAKI-1 renal; more than 100 µM with HOP-92 NSCLC; more than 100 µM in the assay with BT-549 breast; more than 100 µM in the assay with NCI/ADR-RES ovarian; more than 100 µM with U251 CNS; 35.3 µM with M14 melanoma. Moreover, the TGI is 36.2 µM in the assay on RXF 393 renal; more than 100 µM with 786-0 renal; more than 100 µM in the assay on SN12C renal; 59.7 µM in the assay with SR leukemia; more than 100 µM in the assay with NCI-H23 lung.
On to `O=C1CC(=Nc2ccc(Cl)cc2)C(c2ccccc2)N1c1ccccc1` (centres undefined), for which the TGI is 5.71 µM in the assay on CAKI-1 renal; 54.6 µM in the assay with HOP-92 NSCLC; 41.6 µM in the assay with BT-549 breast; 95.8 µM with NCI/ADR-RES ovarian; more than 100 µM with U251 CNS; 33.8 µM with M14 melanoma. Also, the TGI in the assay on RXF 393 renal was more than 100 µM; in the assay with 786-0 renal, more than 100 µM; in the assay on SN12C renal it was more than 100 µM; in the assay on SR leukemia, 45.5 µM; with NCI-H23 lung it was 70.9 µM.
Take `C[N+](C)(C)CC1CCCCCCCCCCC1=O` (centres undefined): the TGI with CAKI-1 renal, in the assay on HOP-92 NSCLC, in the assay with BT-549 breast, in the assay on NCI/ADR-RES ovarian, with U251 CNS and with M14 melanoma was more than 100 µM throughout. The TGI in the assay on RXF 393 renal, in the assay with 786-0 renal, in the assay with SN12C renal, with SR leukemia and in the assay on NCI-H23 lung was more than 100 µM in each case.
